These results are taken from patent US7250434B2, “CCK-1 receptor modulators” (Janssen Pharmaceutica N.V., priority 2003, dated 2007).

The target in the assay is T1, CCK-1 receptor (Homo sapiens, UniProt P32238).
T1 construct: expressed in transfected cells; membranes
T1 sequence (P32238 1-428): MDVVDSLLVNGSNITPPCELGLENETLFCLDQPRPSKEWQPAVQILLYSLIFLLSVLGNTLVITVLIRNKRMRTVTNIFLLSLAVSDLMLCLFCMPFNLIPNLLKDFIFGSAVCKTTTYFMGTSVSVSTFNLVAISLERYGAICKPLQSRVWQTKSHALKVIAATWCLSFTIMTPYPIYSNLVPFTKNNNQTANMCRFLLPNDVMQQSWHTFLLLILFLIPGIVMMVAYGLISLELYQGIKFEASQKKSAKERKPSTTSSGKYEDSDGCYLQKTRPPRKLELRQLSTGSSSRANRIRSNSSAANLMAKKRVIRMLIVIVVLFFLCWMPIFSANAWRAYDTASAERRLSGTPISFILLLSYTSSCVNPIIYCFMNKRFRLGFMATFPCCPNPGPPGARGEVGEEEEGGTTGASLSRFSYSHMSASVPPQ
As to the kind of experiment: [125I]-BH-CCK-8S competition binding to membranes of CHO-K1 cells stably transfected with the CCK-1 receptor. The following applies: membranes of CCK-1 transfected CHO-K1 cells; 20 pM [125I]-BH-CCK-8S; 0.3 μM PD-134,308 present; 60 min at 21±3° C.; Cheng-Prusoff. On the procedure:
CHO-K1 cells that had undergone stable transfection with the CCK-1 receptor were grown in DMEM supplemented with L-glutamine (2 mM), penicillin (50 units/mL) and streptomycin (50 μg/mL). Cells were cultured under continuous G418 selection (2 mM) and were harvested using a rubber cell scraper. CHO-K1 cells were sub-cultured a maximum of ten times before being reseeded from the original stocks.
Membranes were prepared from the stably transfected CHO-K1 cells. Frozen cell pellets (−40° C.) were thawed in 14 mL of buffer A (10 mM HEPES, 130 mM NaCl, 4.7 mM KCl, 5 mM MgCl, 1 mM EGTA and 15.4 mg/100 mL bacitracin at pH 7.2), adapted from Harper et al. (Br. J. Pharmacol. 1996, 118:1717-1726). The thawed pellets were homogenized using a Polytron PT-10 (7×1 s). The homogenates were centrifuged for 5 min at 1500 rpm (600×g), and the resulting pellets were discarded. The supernatants were re-centrifuged in order to collect the receptor-membrane pellets (25 min 15,000 rpm; 39,800×g), which were re-suspended in buffer A.
All assays were conducted in 96-well plates (GF/B millipore filter plates) using buffer A, with 0.3 μM PD-134,308, for the dilutions. The CCK-2 receptor ligand was included to eliminate the contribution of this receptor subtype to the binding. For the optimal cell number determination experiments 20 pM [^125I]-BH-CCK-8S (50 μL 60 pM solution) was incubated with a range of cell concentrations (2.5×105 to 12.5×10^5 cells/well) in a total volume of 150 μL. Total binding of [^125I]-BH-CCK-8S was determined in the presence of 15 μL of buffer A. Non-specific binding of [^125I]-BH-CCK-8S was determined in the presence of 15 μL of 100 μM 2-naphthalenesulphonyl L-aspartyl-(2-phenethyl)amide (2-NAP: see R. A. Hull et al. Br. J. Pharmacol. 1993, 108:734-740), a CCK-1 receptor selective antagonist that is structurally unrelated to the radioligand [^125I]-BH-CCK-8S. The assay preparation was incubated for 1 h at 21±3° C., and then the assay was terminated upon rapid filtration of the preparation under reduced pressure. The loaded filters were washed three times using undiluted PBS (100 μL), and then the residues were transferred to 5 mL scintillation tubes. Bound radioactivity was determined using a gamma counter (count time=1 min). From these experiments a cell concentration of 1 pellet in 40 mL of buffer (2.5×10^6 cells/mL) was chosen for use in other assays (below). To validate the radioligand concentration and incubation time for the assay, saturation and kinetic binding studies were also conducted (see M. F. Morton, The Pharmacological Characterization of Cholecystokinin Receptors in the Human Gastrointestinal Tract. PhD Thesis, University of London, 2000). The affinity of novel compounds was estimated by incubating membrane preparations with 15 μL of competing ligand (0.1 pM-1 mM) for 60 min at 21±3° C. The assay was then terminated according to the procedure outlined above.
The pKi values were determined using the equation of Y.-C. Cheng and W. H. Prusoff (Biochem. Pharmacol. 1973, 22(23):3099-3108):
[formula] To circumvent problems associated with computer-assisted data analysis of compounds with low affinity, the data obtained in the current study were weighted according to a method described by Morton (2000). In brief, 100% and 0% specific binding were defined independently using total binding and binding obtained in the presence of a high concentration of the reference antagonist, 2-NAP.
Turning to `Cc1ccc(/C(=C/c2nc(-c3cc(Cl)ccc3Cl)c(-c3ccc4c(c3)OCO4)[nH]2)C(=O)O)cc1` [Example 6, (Z)-3-[5-Benzo[1,3]dioxol-5-yl-4-(2,5-dichloro-phenyl)-1H-imidazol-2-yl]-2-p-tolyl-acrylic acid], the affinity corresponds to a Ki of 3.98 nM.

The molecule `O=C(O)C(Cc1nc(-c2ccccc2Cl)c(-c2ccccc2Cl)[nH]1)c1cccc2ccccc12` (centres unmarked) [Example 32, 3-[4,5-Bis-(2-chloro-phenyl)-1H-imidazol-2-yl]-2-naphthalen-1-yl-propionic acid] gave a Ki of 398 nM. For `COc1ccc(-c2[nH]c(/C=C(\C(=O)O)c3cccc(C(F)(F)F)c3)nc2-c2ccc(Cl)c(Cl)c2)cc1` [Example 10, (Z)-3-[4-(3,4-Dichloro-phenyl)-5-(4-methoxy-phenyl)-1H-imidazol-2-yl]-2-(3-trifluoromethyl-phenyl)-acrylic acid], affinity was put at a Ki of 10 nM. As to `Cc1ccc(/C(=C\c2nc(-c3cc(Cl)ccc3Cl)c(-c3ccc4c(c3)OCO4)[nH]2)C(=O)O)cc1` [Example 22, (E)-3-[5-Benzo[1,3]dioxol-5-yl-4-(2,5-dichloro-phenyl)-1H-imidazol-2-yl]-2-p-tolyl-acrylic acid], the affinity, expressed as Ki, was 25.1 nM. For the molecule `COc1ccc(-c2[nH]c(/C=C(/C(=O)O)c3ccc(Cl)cc3)nc2-c2ccc(Cl)c(Cl)c2)cc1` [Example 15, (E)-2-(4-Chloro-phenyl)-3-[4-(3,4-dichloro-phenyl)-5-(4-methoxy-phenyl)-1H-imidazol-2-yl]-acrylic acid], the Ki is 79.4 nM. The result for `O=C(O)/C(=C/c1nc(-c2cc(Cl)ccc2Cl)c(-c2ccc3c(c2)OCO3)[nH]1)c1ccc(Cl)cc1` [Example 20, (E)-3-[5-Benzo[1,3]dioxol-5-yl-4-(2,5-dichloro-phenyl)-1H-imidazol-2-yl]-2-(4-chloro-phenyl)-acrylic acid] reads 15.8 nM. The value for `COc1ccc(-c2[nH]c(CC(C(=O)O)c3cccc(Cl)c3)nc2-c2ccc(Cl)c(Cl)c2)cc1` (centres unmarked) [Example 25, 2-(3-Chloro-phenyl)-3-[4-(3,4-dichloro-phenyl)-5-(4-methoxy-phenyl)-1H-imidazol-2-yl]-propionic acid] was 31.6 nM.

Molecule `COc1ccc(-c2[nH]c(/C=C(/C(=O)O)c3ccc(C)cc3)nc2-c2ccc(Cl)c(Cl)c2)cc1` [Example 14, (E)-3-[4-(3,4-Dichloro-phenyl)-5-(4-methoxy-phenyl)-1H-imidazol-2-yl]-2-p-tolyl-acrylic acid] had a Ki of 100 nM. This Ki is about 3.2-fold higher than that of the molecule before. The value for `COc1ccc(-c2[nH]c(CC(C(=O)O)c3ccc(C)cc3)nc2-c2ccc(Cl)c(Cl)c2)cc1` (centres unmarked) [Example 29, 3-[4-(3,4-Dichloro-phenyl)-5-(4-methoxy-phenyl)-1H-imidazol-2-yl]-2-p-tolyl-propionic acid] was 126 nM. In the case of `COc1ccc(-c2[nH]c(/C=C(/C(=O)O)c3cccc4ccccc34)nc2-c2ccc(Cl)c(Cl)c2)cc1` [Example 13, (E)-3-[4-(3,4-Dichloro-phenyl)-5-(4-methoxy-phenyl)-1H-imidazol-2-yl]-2-naphthalen-1-yl-acrylic acid], affinity was put at a Ki of 200 nM. The value for `Cc1ccc(-c2nc(CC(C(=O)O)c3cccc(C)c3)[nH]c2-c2ccc(C)cc2)cc1` (centres unmarked) [Example 30, 3-(4,5-Di-p-tolyl-1H-imidazol-2-yl)-2-m-tolyl-propionic acid] was 20 nM.
